Legend:
HDAC3 = target: T1, HDAC3 (Homo sapiens, UniProt O15379); experiment: Fluorimetric HDAC inhibition assay, HDAC3; type: biochemical; settings: reduced with DTT
T1 construct: purchased BPS Bioscience 50003
Protocol: The inhibition of HDAC1, 2, 3, and 6 by JRM-28 was fluorometrically measured using the HDAC Fluorogenic Assay Kit (Catalog# 50034) by BPS bioscience. Purified recombinant human HDAC1 (Cat# 50051), HDAC3 (Cat# 50003), and HDAC6 (Cat# 50056) were also obtained from BPS Bioscience. The enzyme inhibition assay was performed according to the manufacturer’s protocol. […] Purified recombinant HDAC2 (supplied with the fluorogenic kit) was diluted to 6 ng/µL (5 µL/well with the supplied HDAC assay buffer). HDAC 1, 3, and 6 were also diluted to the optimized concentration (5 µL/well) with the HDAC assay buffer. The activity of JRM-28 was measured along with DTT control and DMSO as blank. After adding 5 µL of the diluted HDAC enzymes in designated wells, the 96-well plate (supplied with the kit) was incubated at 37 °C. Then, the reaction was initiated by adding 5 µL of diluted HDAC substrate to each well, followed by another incubation at 37 °C for 30 min. Next, 50 µL of the developer reagent was added to each well and incubated at room temperature for another 15 min. Finally, fluorescence was measured by a microplate absorbance spectrophotometer (PerkinElmer Enspire 2300 Multilabel Multimode Microplate Reader) with an excitation at λ = 485 nm and detection at λ = 528 nm.

HDAC2 = HDAC2 immunoblot and immunofluorescence in SHSY5Y cells; type: cell-based, human
Protocol: Immunofluorescence analysis was performed as described earlier. Briefly, cells cultured on coverslip contained in six-well plates (Lab-Tek II) were fixed with 4% paraformaldehyde for 20 min followed by two rinses in TBST. Samples were incubated in a 1:1 solution of TBST and blocking buffer containing rabbit anti-NR2A (1:250), anti-GluR1 (1:250), ant-HDAC2 (1:250), anti-CREB (1:250), and anti-MAP2 (1:250) for 2 h at 37 °C. After three washes in PBST (15 min each), slides were further incubated with FIT-C and TRIT-C-conjugated secondary antibodies. For negative controls, a set of culture slides was incubated under similar conditions with secondary antibodies and without the primary antibodies (Table 3). The samples were mounted and observed under an Accuscope fluorescent microscope. The images were captured and merged in CaptaVision^TM imaging software.
Immunoblot analysis was carried out as described earlier. Briefly, SHSY5Y neuronal cell homogenates were electrophoresed by 4–12% Tris-Glycine gradient gel, proteins were transferred onto a 0.45 μm nitrocellulose membrane, and the protein band was visualized with Odyssey Sa infrared scanner after immunolabeling with primary antibodies followed by infrared fluorophore-tagged secondary antibody (Licor Biosciences, Lincoln, NE, USA).

T1 sequence (O15379 whole entry): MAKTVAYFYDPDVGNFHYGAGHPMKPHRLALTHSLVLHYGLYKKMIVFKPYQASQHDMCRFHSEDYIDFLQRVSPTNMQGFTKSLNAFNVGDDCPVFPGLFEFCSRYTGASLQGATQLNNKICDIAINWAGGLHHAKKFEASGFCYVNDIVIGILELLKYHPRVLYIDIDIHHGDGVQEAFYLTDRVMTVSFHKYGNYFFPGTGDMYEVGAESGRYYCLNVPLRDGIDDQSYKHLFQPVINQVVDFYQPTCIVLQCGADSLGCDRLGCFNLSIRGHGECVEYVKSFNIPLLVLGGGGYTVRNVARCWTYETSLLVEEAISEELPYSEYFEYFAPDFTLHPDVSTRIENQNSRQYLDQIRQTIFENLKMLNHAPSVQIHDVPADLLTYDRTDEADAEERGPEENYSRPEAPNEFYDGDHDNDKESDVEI
T1 sequence (Q9Y618 395-489 partner limits assumed): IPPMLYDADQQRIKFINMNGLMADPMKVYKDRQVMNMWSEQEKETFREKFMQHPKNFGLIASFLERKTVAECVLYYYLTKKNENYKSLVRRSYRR

Structure (SMILES): CN(C(=O)CC(O)/C=C/CCSS(=O)(=O)CC/C=C/C(O)CC(=O)N(C)c1ccccc1)c1ccccc1 (stereo not drawn) [JRM-28, S-((E)-5-hydroxy-7-(methyl(phenyl)amino)-7-oxohept-3-en-1-yl) (E)-5-hydroxy-7-(methyl(phenyl)amino)-7-oxohept-3-ene-1-sulfonothioate]
- IC50 (HDAC3): 279 nM
- Hill coefficient HDAC3 (fluorimetric) (HDAC3; listed as JRM-28 (JRM-28a+28b)): −4.663
- nuclear translocation of HDAC2 (immunocytochemistry) (HDAC2; 5 µM): significantly arrested the nuclear translocation of HDAC2
- HDAC2 expression in nuclei (dual IF with CREB) (HDAC2; 5 µM, SHSY5Y cells): significantly attenuated the expression of HDAC2 in the nuclei
- HDAC2 expression (immunoblot) (HDAC2; 2, 5, and 10 µM, 24 h, versus control): did not upregulate the expression of HDAC2

From PMC11640089, “JRM-28, a Novel HDAC2 Inhibitor, Upregulates Plasticity-Associated Proteins in Hippocampal Neurons and Enhances Morphological Plasticity via Activation of CREB: Implications for Alzheimer’s Disease” (Cells, 2024)
